One data set has as its system complementary DNA. Description: Thermal denaturation (UV melting) of AON duplexes with complementary DNA. In kind it is binding. The conditions noted are these: for Tm/° C. with DNA: 1 μM of each strand, medium salt buffer pH 7.5, average of at least three runs; for ΔTm* (Tm relative to DNA compliment): relative to native AON 1/DNA duplex.
Another data set has as its system complementary RNA. Briefly: Thermal denaturation (UV melting) of AON duplexes with complementary RNA. In kind it is binding. The conditions noted are these: for Tm/° C. with RNA: 1 μM of each strand, medium salt buffer pH 7.5, average of at least three runs; for ΔTm (Tm relative to RNA compliment): relative to native AON 1/RNA duplex. How it is done:
All 17 modified AONs have been purified as a single component on PAGE (20% polyacrylamide with 7 Molar urea), extracted with 0.3 M NaOAc and desalted with C-18 reverse phase cartridge to give AONs in >99% purity and correct mass have been obtained by MALDI-TOF mass spectroscopy for each one them (Table 1). Determination of the Tm of the AON/RNA hybrids was carried out in the following buffer: 57 mM Tris-HCl (pH 7.5), 57 mM KCl, 1 mM MgCl2. Absorbance was monitored at 260 nm in the temperature range from 20° C. to 90° C. using UV spectrophotometer equipped with Peltier temperature programmer with the heating rate of 1° C. per minute. Prior to measurements, the samples (1 μM of AON and 1 μM RNA mixture) were pre-annealed by heating to 90° C. for 5 min followed by slow cooling to 4° C. and 30 min equilibration at this temperature and are average of at least three independent runs.

A short description of data set [1]: Stability of 5′-32P-labeled AONs in human blood serum (PAGE autoradiography). In kind it is in vitro ADME. How it is done:
FIG. 4. Autoradiograms of 20% denaturing PAGE showing degradation patterns of 5′-^32P-labeled AONs in human blood serum (Table 1 for all AON sequences). Inset A: AON 1 and LNA-modified AONs 2-5. Inset B: Carbocyclic-LNA-modified AONs 6-9. Inset C: Carbocyclic-ENA-modified AONs 10-13 and Inset D: aza-ENA-modified AONs 14-17. Time points are taken after 0, ½, 1 h, 2 h, 5 h, 7 h, 9 h, 12 h, for AONs 1-5 and 0 h, 6 h, 8 h, 12 h, 24 h, 36 h and 48 h of incubation for AONs 6-17 at 21° C. (see Experimental Section for details).
Modified sequences (Table 1), ^32P-labeled at 5′-ends, were digested in human blood serum at 21° C. as shown in the PAGE autoradiograms (Insets A, B, C and D in FIG. 4). In order to understand
AONs (6 μL) at 2 μM concentration (5′-end ^32P labeled with specific activity 80 000 cpm) were incubated in […] of human blood serum (male AB) at 21° C. (total reaction volume was 36 μL) and the experiments were repeated twice up to 48 h. Aliquots (3 μL) were taken at 0, 30 min, 1, 2, 5, 7, 8, 9, 12, 24, 36, 48 h and quenched with 7 μL of solution containing 8 M urea and 50 mM EDTA, resolved in 20% polyacrylamide denaturing (7 M urea) gel electrophoresis and visualized by autoradiography. […] Since no new prominent cleavage products were found toward the later time points, we considered those prominent stable initial fragments as 100% during the last time points (12-48 h).

Consider 17 substances from patent US8461124B2, “Five- and six-membered conformationally locked 2′,4′-carbocyclic ribo-thymidines for the treatment of infections and cancer” (priority 2007, dated 2013).

In the case of “(1R,3R,4R,5R,7S)-7-(2-(Cyanoethoxy-(diisopropylamino)-phosphinoxy)-1-(4,4′-dimethoxytrityloxy methyl)-3-(thymin-1-yl)-2-oxa-bicyclo[2.2.1]heptane [Compound 14]”, in the data set on complementary DNA, the “Tm/° C. with DNA” value came to 44.5 °C and the “ΔTm* (Tm relative to DNA compliment)” value is −0.5 °C. In the data set on complementary RNA, the “Tm/° C. with RNA” value was 48 °C and the “ΔTm (Tm relative to RNA compliment)” value was “+4 °C”.
“3′-d(CTT(5-carbo)CTTTTTTACTTC)-5′ (antisense CTTCTTTTTTACTTC; carbocyclic-LNA-T at position 3 from 3'-end, chemistry not fully specified) [AON 6, carbocyclic-LNA-T modified AON, position 3 from 3′-end]”: the “time to give the n−1 fragment (hydrolysis of 3′-terminal nucleotide)” value (“time … (hydrolysis of 3′-terminal nucleotide)” for short) in data set [1] (human blood serum, 21° C.) was found to be 2 h. Moreover, in the data set with complementary DNA, the “Tm/° C. with DNA” value came to 45 °C and the “ΔTm* (Tm relative to DNA compliment)” value amounted to 0.00 °C. For the same substance, in the data set with complementary RNA, the “Tm/° C. with RNA” value was found to be 47.5 °C and the “ΔTm (Tm relative to RNA compliment)” value is “+3.5 °C”.
“3′-d(CTTCTTTTTT(6-carbo)ACTTC)-5′ [AON 13]”: in the data set on complementary DNA, the “Tm/° C. with DNA” value stood at 39.5 °C and the “ΔTm* (Tm relative to DNA compliment)” value was −5.5 °C. For the same substance, in the data set on complementary RNA, the “Tm/° C. with RNA” value was determined as 45.5 °C and the “ΔTm (Tm relative to RNA compliment)” value is “+1.5 °C”.
Taken in the same sequence, the figures for “3′-d(CTTCTTTT(LNA)TTACTTC)-5′ (antisense CTTCTTTTTTACTTC; LNA-T at position 8 from 3'-end, chemistry not fully specified) [AON 4, LNA-T modified AON, position 8 from 3′-end]” were 45.0 °C, 0.0 °C, 49 °C and “+5 °C”.
The matching figures for “3′-d(CTTCTT(aza-ENA)TTTTACTTC)-5′ (antisense CTTCTTTTTTACTTC; aza-ENA-T at position 6 from 3'-end, chemistry not fully specified) [AON 15, aza-ENA-T modified AON, position 6 from 3′-end]”: 42.5 °C, −2.5 °C, 46.5 °C and “+2.5 °C”.
Taken in the same sequence, the figures for “3′-d(CTTCTT(5-carbo)TTTTACTTC)-5′ (antisense CTTCTTTTTTACTTC; carbocyclic-LNA-T at position 6 from 3'-end, chemistry not fully specified) [AON 7, carbocyclic-LNA-T modified AON, position 6 from 3′-end]” were 44 °C, −1.00 °C, 49 °C and “+5 °C”.
Regarding 3′-d(CTTCT T(LNA)TTTTACTTC)-5′ [AON 3], in the data set on complementary DNA, the “Tm/° C. with DNA” value was determined as 46.5 °C and the “ΔTm* (Tm relative to DNA compliment)” value is “+1.5 °C”. Besides, in the data set with complementary RNA, the “Tm/° C. with RNA” value was 49 °C and the “ΔTm (Tm relative to RNA compliment)” value was “+5 °C”.
The matching figures for “3′-d(CTTCTTTT(5-carbo)TTACTTC)-5′ (antisense CTTCTTTTTTACTTC; carbocyclic-LNA-T at position 8 from 3'-end, chemistry not fully specified) [AON 8, carbocyclic-LNA-T modified AON, position 8 from 3′-end]”: 44 °C, −1.00 °C, 48 °C and “+4 °C”.
Taken in the same sequence, the figures for “3′-d(CTTCTTTTTT(LNA)ACTTC)-5′ (antisense CTTCTTTTTTACTTC; LNA-T at position 10 from 3'-end, chemistry not fully specified) [AON 5, LNA-T modified AON, position 10 from 3′-end]” were 46 °C, “+1 °C”, 49 °C and “+5 °C”.
The matching figures for “3′-d(CTTCTT(6-carbo)TTTTACTTC)-5′ [AON 11]”: 39.5 °C, −5.5 °C, 45.5 °C and “+1.5 °C”.
Regarding “3′-d(CTTCTTTTTT(aza-ENA)ACTTC)-5′ (antisense CTTCTTTTTTACTTC; aza-ENA-T at position 10 from 3'-end, chemistry not fully specified) [AON 17, aza-ENA-T modified AON, position 10 from 3′-end]”, in the data set with complementary DNA, the “Tm/° C. with DNA” value amounted to 42 °C and the “ΔTm* (Tm relative to DNA compliment)” value is −3 °C. Moreover, in the data set on complementary RNA, the “Tm/° C. with RNA” value was 48 °C and the “ΔTm (Tm relative to RNA compliment)” value is “+4 °C”.
Consider “3′-d(CTT(LNA)CTTTTTTACTTC)-5′ (antisense CTTCTTTTTTACTTC; LNA-T at position 3 from 3'-end, chemistry not fully specified) [AON 2, LNA-T modified AON, position 3 from 3′-end]”, for which the “serum stability compared with native AON 1” value in data set [1] (human blood serum cleavage pattern) is recorded as “only slightly more stable than the native counterpart”. Moreover, in data set [1] (human blood serum, 21° C.), the “time to full degradation” value is reported as 9 h, the “time to give the n−1 fragment” value is given as 35 min and the “time to give the n−2 fragment as major product” value is given as 5 h. Besides, in the data set with complementary DNA, the “Tm/° C. with DNA” value was 47 °C and the “ΔTm* (Tm relative to DNA compliment)” value is “+2 °C”. Also, in the data set with complementary RNA, the “Tm/° C. with RNA” value was determined as 48 °C and the “ΔTm (Tm relative to RNA compliment)” value was “+4 °C”.
As to “3′-d(CTT(aza-ENA)CTTTTTTACTTC)-5′ (antisense CTTCTTTTTTACTTC; aza-ENA-T at position 3 from 3'-end, chemistry not fully specified) [AON 14, aza-ENA-T modified AON, position 3 from 3′-end]”, in data set [1] (human blood serum, 21° C.), the “time … (hydrolysis of 3′-terminal nucleotide)” value was at most 5 h. In addition, in data set [1] (human blood serum, after 12 h), the “fraction of n−1 fragment” value was “ca. 65%” and the “fraction of n−2 fragment” value is given as around 35%. Further, in data set [1] (human blood serum, within 5 h), the “fraction of n−1 fragment” value was “ca. 85%” and the “fraction of n−2 fragment” value is reported as “ca. 15%”.
For “3′-d(CTTCTTTTTT(5-carbo)ACTTC)-5′ (antisense CTTCTTTTTTACTTC; carbocyclic-LNA-T at position 10 from 3'-end, chemistry not fully specified) [AON 9, carbocyclic-LNA-T modified AON, position 10 from 3′-end]”, in the data set on complementary DNA, the “Tm/° C. with DNA” value amounted to 43.0 °C and the “ΔTm* (Tm relative to DNA compliment)” value was −2.00 °C. Further, in the data set on complementary RNA, the “Tm/° C. with RNA” value worked out at 47.5 °C and the “ΔTm (Tm relative to RNA compliment)” value is “+3.5 °C”.
Taken in the same sequence, the figures for “3′-d(CTTCTTTT(6-carbo)TTACTTC)-5′ [AON 12]” were 40.0 °C, −5.0 °C, 45.5 °C and “+1.5 °C”.
The matching figures for “3′-d(CTTCTTTT(aza-ENA)TTACTTC)-5′ (antisense CTTCTTTTTTACTTC; aza-ENA-T at position 8 from 3'-end, chemistry not fully specified) [AON 16, aza-ENA-T modified AON, position 8 from 3′-end]”: 42 °C, −3 °C, 47.5 °C and “+3.5 °C”.
Take “3′-d(CTT(6-carbo)CTTTTTTACTTC)-5′ (antisense CTTCTTTTTTACTTC; carbocyclic-ENA-T at position 3 from 3'-end, chemistry not fully specified) [AON 10, carbocyclic-ENA-T modified AON, position 3 from 3′-end]”: the “time … (hydrolysis of 3′-terminal nucleotide)” value in data set [1] (human blood serum, 21° C.) stood at 2 h. Further, in the data set with complementary DNA, the “Tm/° C. with DNA” value worked out at 43.5 °C and the “ΔTm* (Tm relative to DNA compliment)” value was −1.5 °C. Moreover, in the data set with complementary RNA, the “Tm/° C. with RNA” value is 45.5 °C and the “ΔTm (Tm relative to RNA compliment)” value was “+1.5 °C”.
